Test results: US20260022143A1, “Cyclic Peptide Inhibitors of IL-23” (JANSSEN PHARMACEUTICA NV, priority 2022, published 2026)
Starred links: 1 amine or outer side, 2 acyl side, 3 side chain; linkers in the order of their positions; H or OH if unused. Positions of bridges follow the written chain, without caps; N, C: chain ends. Non-standard residues stand in square brackets, D forms with d. Residues, ends and D or L forms follow the SMILES beside them. *: point of attachment. Me3N+CH2CH2(OCH2CH2)4CO = C[N+](C)(C)CCOCCOCCOCCOCCC(=O)*; Me3N+(CH2)2O(CH2)2O(CH2)2CO = C[N+](C)(C)CCOCCOCCC(=O)*; Trp(7-Me) = Cc1cccc2c(C[C@H](N)C(=O)O)c[nH]c12; X1 = CN(CC[C@H](N[*:1])C(=O)[*:2])[*:3]; 2Nal = N[C@@H](Cc1ccc2ccccc2c1)C(=O)O; AEF = NCCOc1ccc(C[C@H](N)C(=O)O)cc1; X19 = C[N+](C)(C)C[C@@H](CC(=O)O)N*; X24 = C[N+](C)(CCN[*:1])CC(=O)[*:2]; 3Pal = N[C@@H](Cc1cccnc1)C(=O)O; N(CH2CH2)2CF2 = FC1(F)CCN(*)CC1; Lys(Me) = CNCCCC[C@H](N)C(=O)O; X7 = COCCOCCOCCOCCOCCOCCC(=O)*; X5 = C[N+](C)(C)CCOCCOCC(=O)*; Pen = CC(C)(S)[C@H](N)C(=O)O; X55 = OC1(C(F)(F)F)CCN(*)CC1; Thp = NC1(C(=O)O)CCOCC1; Me2NCH2CH2 = CN(C)CC*; Aib = CC(C)(N)C(=O)O; Sar = CNCC(=O)O

Tests used:
[1] = Exposed Polar Surface Area (EPSA); type: physicochemical; conditions: SFC on Chirex 3014 column; sample 1 mM DMSO stock; read-out: EPSA
Outline: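 EPSA, in Å^2, is read from SFC retention time through a linear relationship established with eight calibration standards. Separation uses a Chirex 3014 stationary phase, 35 °C, 14 MPa back pressure, and a 5–60% methanol/ammonium formate modifier gradient in CO2.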

[2] = target: T1, IL-23R (Homo sapiens, UniProt Q5VWK5); assay: IL23R Reporter Assay; type: cell-based; conditions: HEK293 cells containing IL-23R, IL-12RP1 and STAT-inducible firefly luciferase reporter; 10 ng/mL IL-23 (EC90); 5 h at 37° C.; read-out: IL23R Reporter Assay
T1 construct: host or cells: HEK293
T1 sequence (Q5VWK5 24-629): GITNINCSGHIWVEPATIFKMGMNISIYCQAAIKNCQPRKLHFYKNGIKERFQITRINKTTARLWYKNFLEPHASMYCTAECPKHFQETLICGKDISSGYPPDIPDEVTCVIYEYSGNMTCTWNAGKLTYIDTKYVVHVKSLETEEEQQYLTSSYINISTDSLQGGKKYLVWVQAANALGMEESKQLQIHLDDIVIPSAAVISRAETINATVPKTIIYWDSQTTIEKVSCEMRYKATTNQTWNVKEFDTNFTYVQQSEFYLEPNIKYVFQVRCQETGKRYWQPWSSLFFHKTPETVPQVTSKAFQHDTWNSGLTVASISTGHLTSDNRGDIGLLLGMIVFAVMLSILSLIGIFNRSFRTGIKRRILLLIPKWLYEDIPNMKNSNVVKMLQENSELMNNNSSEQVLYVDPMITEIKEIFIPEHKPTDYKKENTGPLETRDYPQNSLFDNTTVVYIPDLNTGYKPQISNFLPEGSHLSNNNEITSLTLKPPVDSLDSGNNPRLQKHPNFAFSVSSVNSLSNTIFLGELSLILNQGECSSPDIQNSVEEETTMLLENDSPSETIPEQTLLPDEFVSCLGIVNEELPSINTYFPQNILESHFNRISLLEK

SMILES: CC(=O)N[C@@H]1C(=O)N[C@@H](C)C(=O)N[C@@H]([C@@H](C)O)C(=O)N[C@@H](Cc2c[nH]c3c(C)cccc23)C(=O)N[C@@H](C)C(=O)N[C@H](C(=O)N[C@@H](Cc2ccc(OCCN(C)C)cc2)C(=O)N[C@@H](Cc2ccc3ccccc3c2)C(=O)NC2(C(=O)N[C@@H](CCC(=O)O)C(=O)N[C@@H](CC(N)=O)C(=O)N[C@@H](Cc3cccnc3)C(=O)N(C)CC(=O)N(C)C)CCOCC2)C(C)(C)SSC1(C)C [compound 119] (Ac-[Pen]AT[Trp(7-Me)]A[Pen]Y(Me2NCH2CH2)[2Nal][Thp]EN[3Pal][Sar]-NMe2; disulfide 1-6 (inferred))
- EPSA [1]: 159 A^2
- IC50 [2]: 6.3 nM

SMILES: CC(=O)N[C@@H]1C(=O)N[C@@H](C)C(=O)N[C@@H]([C@@H](C)O)C(=O)N[C@@H](Cc2c[nH]c3c(C)cccc23)C(=O)N[C@@H](C)C(=O)N[C@H](C(=O)N[C@@H](Cc2ccc(OCCN(C)C)cc2)C(=O)N[C@@H](Cc2ccc3ccccc3c2)C(=O)NC2(C(=O)N[C@@H](C)C(=O)N[C@@H](CC(N)=O)C(=O)N[C@@H](Cc3cccnc3)C(=O)N(C)CC(=O)N(C)C)CCOCC2)C(C)(C)SSC1(C)C [compound 121] (Ac-[Pen]AT[Trp(7-Me)]A[Pen]Y(Me2NCH2CH2)[2Nal][Thp]AN[3Pal][Sar]-NMe2; disulfide 1-6)
- EPSA [1]: 145 A^2
- IC50 [2]: 13 nM

SMILES: CC(=O)N[C@@H]1C(=O)N[C@@H](CC(=O)N(C)C)C(=O)N[C@@H]([C@@H](C)O)C(=O)N[C@@H](Cc2c[nH]c3c(C)cccc23)C(=O)N[C@@H](CCCCN(C)C(C)=O)C(=O)N[C@H](C(=O)N[C@@H](Cc2ccc(OCCN(C)C)cc2)C(=O)N[C@@H](Cc2ccc3ccccc3c2)C(=O)NC2(C(=O)N[C@@H](CCCCN(C)C(C)=O)C(=O)N[C@@H](CC(N)=O)C(=O)N[C@@H](Cc3cccnc3)C(=O)N(C)CC(=O)N(C)C)CCOCC2)C(C)(C)SSC1(C)C [compound 122, MeCO-Pen(3)-N(N(Me)2)-T-7MeW-K(NMeAc)-Pen(3)-AEF(N(Me)2)-2Nal-THP-K(NMeAc)-N-3Pya-Sar-CON(Me)2] (Ac-[Pen]D(NMe2)T[Trp(7-Me)][Lys(Me)](Ac)[Pen]Y(Me2NCH2CH2)[2Nal][Thp][Lys(Me)](Ac)N[3Pal][Sar]-NMe2; disulfide 1-6)
- EPSA [1]: 141 A^2
- IC50 [2]: 2.1 nM

SMILES: CC(=O)NCCCC[C@@H]1NC(=O)[C@H](Cc2c[nH]c3c(C)cccc23)NC(=O)[C@H]([C@@H](C)O)NC(=O)[C@H](CC(N)=O)NC(=O)[C@@H](NC(=O)[C@@H](CCC(=O)N[C@H](CC(=O)O)C[N+](C)(C)C)NC(C)=O)C(C)(C)SSC(C)(C)[C@@H](C(=O)N[C@@H](Cc2ccc(OCCN)cc2)C(=O)N[C@@H](Cc2ccc3ccccc3c2)C(=O)NC2(C(=O)N[C@@H](CCCCNC(C)=O)C(=O)N[C@@H](CC(N)=O)C(=O)N[C@@H](Cc3cccnc3)C(=O)N(C)CC(N)=O)CCOCC2)NC1=O [compound 125] (Ac-[dE](X19)[Pen]NT[Trp(7-Me)]K(Ac)[Pen][AEF][2Nal][Thp]K(Ac)N[3Pal][Sar]-NH2; disulfide 2-7 (inferred))
- EPSA [1]: 181 A^2
- IC50 [2]: 2 nM

SMILES: CC(=O)N[C@@H]1C(=O)N[C@@H](CC(=O)N(C)C)C(=O)N[C@@H]([C@@H](C)O)C(=O)N[C@@H](Cc2c[nH]c3c(C)cccc23)C(=O)N[C@@H](CCN(C)C(=O)COCCOCC[N+](C)(C)C)C(=O)N[C@H](C(=O)N[C@@H](Cc2ccc(OCCN)cc2)C(=O)N[C@@H](Cc2ccc3ccccc3c2)C(=O)NC2(C(=O)N[C@@H](CCC(=O)O)C(=O)N[C@@H](CC(N)=O)C(=O)N[C@@H](Cc3cccnc3)C(=O)N(C)CC(=O)N(C)C)CCOCC2)C(C)(C)SSC1(C)C [compound 130, MeCO-Pen(3)-N(N(Me)2)-T-7MeW-Dab(NMecPEG2a)-Pen(3)-AEF-2Nal-THP-E-N-3Pya-Sar-CON(Me)2] (Ac-[Pen]D(NMe2)T[Trp(7-Me)][X1](X5)[Pen][AEF][2Nal][Thp]EN[3Pal][Sar]-NMe2; disulfide 1-6)
- EPSA [1]: 164 A^2
- IC50 [2]: 3.4 nM

SMILES: CC(=O)NCCCC[C@@H]1NC(=O)[C@H](Cc2c[nH]c3c(C)cccc23)NC(=O)[C@H]([C@@H](C)O)NC(=O)[C@H](CC(N)=O)NC(=O)[C@@H](NC(C)=O)C(C)(C)SSC(C)(C)[C@@H](C(=O)N[C@@H](Cc2ccc(OCCN)cc2)C(=O)N[C@@H](Cc2ccc3ccccc3c2)C(=O)NC2(C(=O)N[C@@H](CCC(=O)O)C(=O)N[C@@H](CC(N)=O)C(=O)N[C@@H](Cc3cccnc3)C(=O)N(C)CC(=O)N3CCC(O)(C(F)(F)F)CC3)CCOCC2)NC1=O [compound 135] (Ac-[Pen]NT[Trp(7-Me)]K(Ac)[Pen][AEF][2Nal][Thp]EN[3Pal][Sar]-X55; disulfide 1-6 (inferred))
- EPSA [1]: 171 A^2
- IC50 [2]: 3.7 nM

SMILES: CC(=O)NCCCC[C@@H]1NC(=O)[C@H](Cc2c[nH]c3c(C)cccc23)NC(=O)[C@H]([C@@H](C)O)NC(=O)[C@H](CC(N)=O)NC(=O)[C@@H](NC(C)=O)C(C)(C)SSC(C)(C)[C@@H](C(=O)N[C@@H](Cc2ccc(OCCN)cc2)C(=O)N[C@@H](Cc2ccc3ccccc3c2)C(=O)NC2(C(=O)N[C@@H](CCC(=O)O)C(=O)N[C@@H](CC(N)=O)C(=O)N[C@@H](Cc3cccnc3)C(=O)N(C)CC(=O)N3CCC(F)(F)CC3)CCOCC2)NC1=O [compound 136] (Ac-[Pen]NT[Trp(7-Me)]K(Ac)[Pen][AEF][2Nal][Thp]EN[3Pal][Sar]-{N(CH2CH2)2CF2}; disulfide 1-6 (inferred))
- EPSA [1]: 169 A^2
- IC50 [2]: 2.6 nM

SMILES: Cc1cccc2c(C[C@@H]3NC(=O)[C@H]([C@@H](C)O)NC(=O)[C@H](CC(=O)N(C)C)NC(=O)[C@@H](NC(=O)CCOCCOCC[N+](C)(C)C)C(C)(C)SSC(C)(C)[C@@H](C(=O)N[C@@H](Cc4ccc(OCCN)cc4)C(=O)N[C@@H](Cc4ccc5ccccc5c4)C(=O)NC4(C(=O)N[C@@H](CCC(=O)N(C)C)C(=O)N[C@@H](CC(N)=O)C(=O)N[C@@H](Cc5cccnc5)C(=O)N(C)CC(=O)N(C)C)CCOCC4)NC(=O)[C@H](CCC(=O)N(C)C)NC3=O)c[nH]c12 [compound 139, cPEG3aCO-Pen(3)-N(N(Me)2)-T-7MeW-Q(N(Me)2)-Pen(3)-AEF-2Nal-THP-Q(N(Me)2)-N-3Pya-Sar-CON(Me)2] ({Me3N+(CH2)2O(CH2)2O(CH2)2CO}-[Pen]D(NMe2)T[Trp(7-Me)]E(NMe2)[Pen][AEF][2Nal][Thp]E(NMe2)N[3Pal][Sar]-NMe2; disulfide 1-6)
- EPSA [1]: 150 A^2
- IC50 [2]: 3.4 nM

SMILES: COCCOCCOCCOCCOCCOCCC(=O)N(C)CC[C@@H]1NC(=O)[C@H](Cc2c[nH]c3c(C)cccc23)NC(=O)[C@H]([C@@H](C)O)NC(=O)[C@H](CC(=O)N(C)C)NC(=O)[C@@H](NC(C)=O)C(C)(C)SSC(C)(C)[C@@H](C(=O)N[C@@H](Cc2ccc(OCCN)cc2)C(=O)N[C@@H](Cc2ccc3ccccc3c2)C(=O)NC2(C(=O)N[C@@H](CCN(C)C(=O)CCOCCOCCOCCOCCOCCOC)C(=O)N[C@@H](CC(N)=O)C(=O)N[C@@H](Cc3cccnc3)C(=O)N(C)CC(=O)N(C)C)CCOCC2)NC1=O [compound 141, MeCO-Pen(3)-N(N(Me)2)-T-7MeW-Dab(NMeCOmPEG6)-Pen(3)-AEF-2Nal-THP-Dab(NMeCOmPEG6)-N-3Pya-Sar-CON(Me)2] (Ac-[Pen]D(NMe2)T[Trp(7-Me)][X1](X7)[Pen][AEF][2Nal][Thp][X1](X7)N[3Pal][Sar]-NMe2; disulfide 1-6)
- EPSA [1]: 140 A^2
- IC50 [2]: 5.7 nM

SMILES: Cc1cccc2c(C[C@@H]3NC(=O)[C@H]([C@@H](C)O)NC(=O)[C@H](CC(=O)N(C)C)NC(=O)[C@@H](NC(=O)CCOCCOCC[N+](C)(C)C)C(C)(C)SSC(C)(C)[C@@H](C(=O)N[C@@H](Cc4ccc(OCCN)cc4)C(=O)N[C@@H](Cc4ccc5ccccc5c4)C(=O)NC4(C(=O)NC(C)(C)C(=O)N[C@@H](CC(N)=O)C(=O)N[C@@H](Cc5cccnc5)C(=O)N(C)CC(=O)N(C)C)CCOCC4)NC(=O)C(C)(C)NC3=O)c[nH]c12 [compound 142, cPEG3aCO-Pen(3)-N(N(Me)2)-T-7MeW-AIB-Pen(3)-AEF-2Nal-THP-AIB-N-3Pya-Sar-CON(Me)2] ({Me3N+(CH2)2O(CH2)2O(CH2)2CO}-[Pen]D(NMe2)T[Trp(7-Me)][Aib][Pen][AEF][2Nal][Thp][Aib]N[3Pal][Sar]-NMe2; disulfide 1-6)
- EPSA [1]: 166 A^2
- IC50 [2]: 6.6 nM

SMILES: COCCOCCOCCOCCOCCOCCC(=O)NCC[N+](C)(C)CC(=O)N[C@@H]1C(=O)N[C@@H](CC(=O)N(C)C)C(=O)N[C@@H]([C@@H](C)O)C(=O)N[C@@H](Cc2c[nH]c3c(C)cccc23)C(=O)N[C@@H](CCN(C)C(=O)CCOCCOCCOCCOCC[N+](C)(C)C)C(=O)N[C@H](C(=O)N[C@@H](Cc2ccc(OCCN)cc2)C(=O)N[C@@H](Cc2ccc3ccccc3c2)C(=O)NC2(C(=O)N[C@@H](CCC(=O)O)C(=O)N[C@@H](CC(N)=O)C(=O)N[C@@H](Cc3cccnc3)C(=O)N(C)CC(=O)N(C)C)CCOCC2)C(C)(C)SSC1(C)C [compound 143, mPEG6CO-SP6-Pen(3)-N(N(Me)2)-T-7MeW-Dab(NMecPEG5a)-Pen(3)-AEF-2Nal-THP-E-N-3Pya-Sar-CON(Me)2] (X7-[X24][Pen]D(NMe2)T[Trp(7-Me)][X1](Me3N+CH2CH2(OCH2CH2)4CO)[Pen][AEF][2Nal][Thp]EN[3Pal][Sar]-NMe2; disulfide 2-7 (inferred))
- EPSA [1]: 161 A^2
- IC50 [2]: 6.5 nM
